Results as given in patent publication US8828997B2, “2,3-dihydro-1H-imidazo(1,2-a)pyrimidin-5-one derivatives, preparation thereof, and pharmaceutical use thereof” (Sanofi, priority 2009, dated 2014).

Legend:
Assay type in all cases: cell-based
[1] = system: translocation of the LC3 protein in Hela GFP-LC3 cells; assay: Translocation of the LC3 protein in Hela human cells measured by image analysis cytometry (test C, autophagy); conditions: EBSS + 10 μM hydroxychloroquine, cells with LC3 granulations, absolute IC50
Protocol: Inhibitory activity of the molecules on autophagy is measured by means of the translocation of the LC3 protein from the cytoplasm to the autophagosomes. For this, Hela cells were transfected with a vector encoding the chimeric protein GFP-LC3. A Hela clone stably expressing the GFP-LC3 protein was selected.
Study of the Translocation of the LC3 Protein in Hela Human Cells, Measured by Image Analysis Cytometry (Test C):
(§1) On day 1, the Hela GFP-LC3 cells are seeded into 96-well plates coated with poly-D-lysine (Greiner, #655946) at the concentration of 15000 cells/well in 200 μl of DMEM medium (DMEM Gibco #11960-044) containing 10% of foetal calf serum (FCS Gibco, #10500-056) and 1% glutamine (L-Glu Gibco #25030-024), and incubated at 37° C., 5% CO2, overnight.
On day 2, the cells are washed twice with EBSS (Sigma #E3024). The cells are then incubated in EBSS, 10 μM hydroxychloroquine and test products, for 2 hours at 37° C. in the presence of 5% CO2. The molecules are diluted in dimethyl sulphoxide (DMSO Sigma #D2650), the final DMSO percentage being 0.1%. The molecules are tested at increasing concentrations in a range that can extend from 10 nM to 1 μM.
After this incubation, the cells are fixed with 4% paraformaldehyde (Sigma #HT501128 4L) for 10 min. The cells are then washed twice with PBS and the nuclei then stained with 2 μg/ml of Hoechst 33342 (Invitrogen #H3570). The 96-well plates are then read with the iCyte image analysis cytometer (Compucyte).
The activity of the product is translated to IC50, obtained from a dose-response curve of various concentrations tested and representing the dose giving 50% specific inhibition (absolute IC50). 2 independent experiments make it possible to calculate the mean of the IC50 values.

[2] = system: AKT protein phosphorylated on serine 473 (P-AKT-S473) in PC3 human prostate carcinoma cells; assay: pAKT expression in PC3 human prostate carcinoma cells measured by MSD Multi-spot Biomarker detection (test B); conditions: MSD sandwich immunoassay, 1 to 2 h incubation, absolute IC50
Protocol: The inhibitory activity of the molecules on AKT phosphorylation is measured either by western blotting using the technique described below, or by the MSD Multi-spot Biomarker detection technique from Meso Scale Discovery also described below.
Study of pAKT Expression in PC3 Human Prostate Carcinoma Cells Measured by the MSD Multi-Spot Biomarker Detection Technique from Meso Scale Discovery (Test B):
This test is based on measuring the expression of the AKT protein phosphorylated on serine 473 (P-AKT-S473), in the PC3 human prostate carcinoma line, by means of the technique based on a sandwich immunoassay using the MSD Multi-spot Biomarker Detection kit from Meso Scale Discovery: phospho-Akt (Ser473) whole cell lysate kit (#K151CAD) or phospho-Akt (Ser473)/Total Akt whole cell lysate kit (#K151OOD). The primary antibody specific for P-AKT-S473 (Kit #K151CAD) is coated onto an electrode in each well of the 96-well plates of the MSD kit: after the addition of a protein lysate to each well, the signal is visualised by adding a secondary detection antibody labelled with an electrochemoluminescent compound. The procedure followed is that described in the kit.
as §1, with “PC3” for “Hela GFP-LC3”, “(TPP, #92096)” for “coated with poly-D-lysine (Greiner, #655946)”, “35 000” for “15000”
On day 2, the cells are incubated in the presence or absence of the test products for 1 to 2 h at 37° C. in the presence of 5% of CO2. The molecules, diluted in dimethyl sulphoxide (DMSO Sigma #D2650), are added from a 20-times concentrated stock solution, the final percentage of DMSO being 0.1%. The molecules are tested either at a single concentration of less than or equal to 10 μM, or at increasing concentrations in a range that can extend from less than 1 nM to 10 μM.
After this incubation, the cells are lysed for the preparation of the proteins. For this, after the culture medium has been drawn off, 50 μl of complete Tris Lysis Buffer of the MSD kit containing the protease and phosphatase inhibitor solutions are added to the wells and the cells are lysed for 1 h at 4° C. with shaking. At this stage, the plates containing the lysates can be stored at −20° C. or at −80° C.
The wells of the 96-well plates of the MSD kit are saturated for 1 h at ambient temperature with the blocking solution of the MSD kit. Four washes are carried out with 150 μl of Tris Wash Buffer of the MSD kit. The lysates previously prepared are transferred into the 96-well multi-spot plates of the MSD kit and incubated for 1 h at ambient temperature, with shaking. Four washes are carried out with 150 μl of Tris Wash Buffer of the MSD kit. 25 μl of the MSD sulfo-tag detection antibody solution are added to the wells and incubated for 1 h at ambient temperature, with shaking. Four washes are carried out with 150 μl of Tris Wash Buffer of the MSD kit. 150 μl of Read Buffer of the MSD kit are added to the wells and the plates are read immediately on the S12400 instrument from Meso Scale Discovery.
The instrument measures a signal for each well. Wells without cells and containing the lysis buffer serve to determine the background noise that will be subtracted from all the measurements (min). The wells containing cells in the absence of product and in the presence of 0.1% DMSO are considered to be the 100% signal (max). The percentage inhibition is calculated for each concentration of test product according to the following formula: (1-((test−min)/(max−min)))×100.
The activity of the product is translated to IC50, obtained from a dose-response curve of the various concentrations tested and representing the dose giving 50% specific inhibition (absolute IC50). 2 independent experiments make it possible to calculate the mean of the IC50 values.

[3] = system: P. falciparum (highly chloroquine-resistant strain Fcm29-Cameroon); assay: Antimalarial activity test (radioactive micromethod of Desjardins, tritiated hypoxanthine incorporation); conditions: Plasmodium falciparum, Erythrocyte, infected human erythrocytes, 48 h
Protocol: Antimalarial Activity Test
The antimalarial activity tests are carried out according to the radioactive micromethod of Desjardins (R. E. Desjardins, C. J. Canfield, J. D. Haynes, J. D. Chulay, Antimicrob. Agents Chemother., 1979, 16, 710-718). The assays are carried out in 96-well microplates (Test Plates Ref. 92696, Techno Plastic Products Ag, Zollstrasse 155, CH-8219 Trasadingen). The P. falciparum strains are cultured in solutions of RPMI 1640 supplemented with 5% of human serum with a haematocrit at 2% and a blood parasite concentration at 1.5%. For each assay, the parasites are incubated with selected concentrations of drugs for 48 h at 37° C. in a humid atmosphere and at 5% CO2. Artemisinin, artesunate and also chloroquine diphosphate are used as reference molecules. The first dilution of the drug is prepared at 1 mg/ml in dimethyl sulphoxide. The range of dilutions of the successive daughter solutions is also prepared in dimethyl sulphoxide. Each daughter dilution is subsequently diluted to 1/50 in RPMI 1640 supplemented with 5% of human serum, all the dilutions being carried out at 37° C. These dilutions are then added to the parasites in culture in the microplates. After addition of the drug, the parasites are in culture in RPMI 1640 containing 5% of human serum and 1% of dimethyl sulphoxide. The parasite growth is measured by incorporation of tritiated hypoxanthine (added 24 h after the beginning of the exposure to the drug) compared with the incorporation in the absence of drug.
The activity of the product is translated to % inhibition of the growth of P. falciparum (highly chloroquine-resistant strain Fcm29-Cameroon) at 1 μM and 0.1 μM in an in vitro test using infected human erythrocytes.

`C[C@H](CN1c2nc(N3CCOCC3)cc(=O)n2C[C@@]1(C)C(F)(F)F)c1ccccc1` [Example 9, (S)-2-Methyl-7-morpholin-4-yl-1-((S)-2-phenylpropyl)-2-trifluoromethyl-2,3-dihydro-1H-imidazo[1,2-a]pyrimidin-5-one] was tested, and the IC50 ([1]; Homo sapiens, HeLa, 2 h) was 191 nM.

`CC(c1ccccc1F)N1c2nc(N3CCOCC3)cc(=O)n2C[C@@]1(C)C(F)(F)F` (single isomer, unassigned) [Example 36, (2S)-1-[(1R or 1S)-1-(2-Fluorophenyl)ethyl]-2-methyl-7-(morpholin-4-yl)-2-(trifluoromethyl)-2,3-dihydroimidazo[1,2-a]pyrimidin-5(1H)-one] gave an IC50 ([2]; P-AKT-S473, PC3 cells) of 4 nM and an IC50 ([1]; Homo sapiens, HeLa, 2 h) of 995 nM.

For `CC(c1ccccc1F)N1c2nc(N3CCOCC3)cc(=O)n2C[C@@]1(C)C(F)(F)F` (single isomer, unassigned) [Example 37, (2S)-1-[(1R or 1S)-1-(2-Fluorophenyl)ethyl]-2-methyl-7-(morpholin-4-yl)-2-(trifluoromethyl)-2,3-dihydroimidazo[1,2-a]pyrimidin-5(1H)-one], the IC50 ([2]; P-AKT-S473, PC3 cells) was 19 nM and the IC50 ([1]; 2 hours) was 737 nM.

`C[C@@]1(C(F)(F)F)Cn2c(nc(N3CCOCC3)cc2=O)N1CCSc1ccccc1` [Example 7, (S)-2-Methyl-7-morpholin-4-yl-1-(2-phenylsulfanylethyl)-2-trifluoromethyl-2,3-dihydro-1H-imidazo[1,2-a]pyrimidin-5-one] gave an IC50 ([1]; Homo sapiens, HeLa, 2 h) of 71 nM.

`COc1ccc(CCN2c3nc(N4CCOCC4)c(F)c(=O)n3C[C@@]2(C)C(F)(F)F)cc1` [Example 18, (2S)-6-Fluoro-1-[2-(4-methoxyphenyl)ethyl]-2-methyl-7-(morpholin-4-yl)-2-(trifluoromethyl)-2,3-dihydroimidazo[1,2-a]pyrimidin-5(1H)-one] showed an IC50 ([1]; Homo sapiens, HeLa, 2 h) of 39 nM.

`COc1cc(F)ccc1[C@H](O)CN1c2nc(N3CCOCC3)cc(=O)n2C[C@@]1(C)C(F)(F)F` [Example 42, (S)-1-[(S)-2-(4-fluoro-2-methoxyphenyl)-2-hydroxyethyl]-2-methyl-7-morpholin-4-yl-2-trifluoromethyl-2,3-dihydro-1H-imidazo[1,2-a]pyrimidin-5-one] was tested, and the inhibition at 1 µM [3] was 78%.

Compound `COc1cc(F)c(C(O)CN2c3nc(N4CCOCC4)cc(=O)n3C[C@@]2(C)C(F)(F)F)cc1OC` (stereo partly drawn) [Example 39, (S)-1-[2-(2-fluoro-4,5-dimethoxyphenyl)-2-hydroxyethyl]-2-methyl-7-morpholin-4-yl-2-trifluoromethyl-2,3-dihydro-1H-imidazo[1,2-a]pyrimidin-5-one] has an inhibition at 0.1 µM [3] of 39% and an inhibition at 1 µM [3] of 85%.

In the case of `COc1ccc([C@H](O)CN2c3nc(N4CCOCC4)cc(=O)n3C[C@@]2(C)C(F)(F)F)c(Cl)c1` [Example 43, (S)-1-[(S)-2-(2-chloro-4-methoxyphenyl)-2-hydroxyethyl]-2-methyl-7-morpholin-4-yl-2-trifluoromethyl-2,3-dihydro-1H-imidazo[1,2-a]pyrimidin-5-one], the inhibition at 0.1 µM [3] is reported as 22% and the inhibition at 1 µM [3] is reported as 74%.

In the case of `COc1ccccc1[C@H](O)CN1c2nc(N3CCOCC3)cc(=O)n2C[C@@]1(C)C(F)(F)F` [Example 40, (S)-1-[(S)-2-hydroxy-2-(2-methoxyphenyl)ethyl]-2-methyl-7-morpholin-4-yl-2-trifluoromethyl-2,3-dihydro-1H-imidazo[1,2-a]pyrimidin-5-one], the inhibition at 0.1 µM [3] is reported as 20% and the inhibition at 1 µM [3] is reported as 80%.

`CCC(c1ccccc1)N1c2nc(N3CCOCC3)cc(=O)n2C[C@@]1(C)C(F)(F)F` (single isomer, unassigned) [Example 13, (S)-2-Methyl-7-morpholin-4-yl-1-((R) or (S)-1-phenylpropyl)-2-trifluoromethyl-2,3-dihydro-1H-imidazo[1,2-a]pyrimidin-5-one] gave an IC50 ([1]; Homo sapiens, HeLa, 2 h) of 822 nM.

`COc1cc(Cl)ccc1[C@H](O)CN1c2nc(N3CCOCC3)cc(=O)n2C[C@@]1(C)C(F)(F)F` [Example 41, (S)-1-[(S)-2-(4-chloro-2-methoxyphenyl)-2-hydroxyethyl]-2-methyl-7-morpholin-4-yl-2-trifluoromethyl-2,3-dihydro-1H-imidazo[1,2-a]pyrimidin-5-one] was tested, and the inhibition at 1 µM [3] was 78%.

Work on `COc1ccc(CCN2c3nc(N4CCOCC4)cc(=O)n3CC2(C)C)cc1` [Example 17, 1-[2-(4-Methoxyphenyl)ethyl]-2,2-dimethyl-7-morpholin-4-yl-2,3-dihydro-1H-imidazo[1,2-a]pyrimidin-5-one] yielded an IC50 ([1]; Homo sapiens, HeLa, 2 h) of 345 nM.

With `C[C@@]1(C(F)(F)F)Cn2c(nc(N3CCOCC3)cc2=O)N1C[C@H](O)c1ccccc1` [Example 11] the IC50 ([1]; Homo sapiens, HeLa, 2 h) was 235 nM and the inhibition at 1 µM [3] was 13%.

`C[C@@]1(C(F)(F)F)Cn2c(nc(N3CCOCC3)cc2=O)N1C(=O)c1ccccc1Cl` [Example 34, (2S)-1-[(2-chlorophenyl)carbonyl]-2-methyl-7-(morpholin-4-yl)-2-(trifluoromethyl)-2,3-dihydroimidazo[1,2-a]pyrimidin-5(1H)-one] showed an IC50 ([2]; Homo sapiens, PC-3, P-AKT-S473, PC3 cells) of 159 nM.
